According to ChEMBL document CHEMBL1201862, “PubChem BioAssay data set” (2004):
Calls of active or inactive are those of the source.

Columns and labels:
Mu-type opioid receptor = Mu-type opioid receptor (Homo sapiens, UniProt P35372); assay type: functional, cell-based;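 further: U2OS cells with beta-arrestin recruitment to OPRM1 by beta-gal complementation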
[1] = molecular target: FAD-linked sulfhydryl oxidase ALR (Homo sapiens, UniProt P55789); test: ALR-catalysed DTT oxidation blockers – biochemical, H2O2 detection, luminescence, cherry-pick, dose response (AID 493248)
[2] = molecular target: 5-hydroxytryptamine receptor 2A (Mus musculus, UniProt P35363); assay type: functional, cell-based;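 further: CHO-K1 cells with tagged receptor and beta-arrestin; agonist potency measured as compound-induced activation of the receptor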
Streptococcus = test: GAS UMAA2166 growth inhibition – luminescence, BacTiterGlo, counter-screen for streptokinase expression inhibitor project, dose response (AID 1915); assay type: functional, organism-based;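 further: potency for reduction of bacterial viability or growth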
Streptokinase A = molecular target: T1, Streptokinase A (Streptococcus pyogenes serotype M1, UniProt P10520); test: viability-normalized secreted streptokinase activity reduction – plasminogen activation absorbance, OD405, dose response (AID 1914); assay type: functional, Streptococcus pyogenes M1 GAS;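 further: secreted streptokinase activity via plasminogen activation per viability signal from cell pellet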
T1 sequence (P10520 whole entry): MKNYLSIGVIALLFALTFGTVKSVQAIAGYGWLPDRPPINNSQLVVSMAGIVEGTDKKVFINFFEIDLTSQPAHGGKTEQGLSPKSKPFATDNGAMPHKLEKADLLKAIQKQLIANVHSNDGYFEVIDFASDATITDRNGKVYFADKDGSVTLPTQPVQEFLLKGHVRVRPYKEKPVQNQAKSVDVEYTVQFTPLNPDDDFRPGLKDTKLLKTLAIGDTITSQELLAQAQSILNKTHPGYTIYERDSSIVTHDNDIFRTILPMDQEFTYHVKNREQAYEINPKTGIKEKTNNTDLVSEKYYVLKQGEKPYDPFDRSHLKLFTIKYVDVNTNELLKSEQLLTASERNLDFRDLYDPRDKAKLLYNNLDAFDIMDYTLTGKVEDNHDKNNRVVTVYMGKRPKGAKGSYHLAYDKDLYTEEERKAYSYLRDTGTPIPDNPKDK

[3] = Luminescence Cell-Based Dose Retest to Confirm Inhibitors of Cancer Stem Cells. [Related pubchem assays (depositor defined):AID2717, AID2721]; assay type: functional; details: Homo sapiens
[4] = microbe, parasite or virus in culture; assay type: functional; details: Mycobacterium tuberculosis
[5] = test system: Streptococcus sp. 'group A'; test: Streptococcus pyogenes SK(-)GAS viability under kanamycin – luminescence, BacTiterGlo, confirmation, counter-screen for streptokinase expression inhibitor project, dose response (AID 1900); assay type: functional, organism-based
[6] = molecular target: Heat shock protein HSP 90-alpha (Homo sapiens, UniProt P07900); assay type: functional, organism-based
[7] = toxicity toward HepG2 liver cells – cell-based, plate reader, cherry-pick, antagonist series, cytotoxicity control, dose response (AID 743416); assay type: functional
[8] = A549 cell cytotoxicity, dose response, cytotoxicity control, plate reader, cherry-pick, antagonist series (AID 743412); assay type: functional, cell-based
[9] = blockers of bursicon-stimulated LGR2 cAMP reporter – cell-based, HEK293, CRE-luciferase reporter, cherry pick, set 2, dose response (AID 743343); assay type: functional;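 further: transfected cells were stimulated with diluted bursicon conditioned medium after compound addition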
[10] = blockade of melanocortin 4 receptor signaling – cell-based, plate reader, cherry pick, counter-screen for LGR2 antagonist project, dose response (AID 743444); assay type: functional;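 further: transfected HEK 293 cells stimulated with alpha-MSH peptide; potency of inhibitors of the alpha-MSH evoked signal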
[11] = viability loss in HEK293 cells – cell-based, plate reader, cherry-picked samples, cytotoxicity control, dose response (AID 743446); assay type: functional
[12] = reduction of Shn3 3'UTR-driven luciferase in osteoblasts – cell-based, Clone20 osteoblasts, firefly luciferase, cherry-picked, dose response (AID 624132); assay type: functional;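 further: firefly luciferase luminescence from reporter carrying the Shn3 3'UTR in osteoblasts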
[13] = non-specific 3'UTR reporter inhibition in Clone20-Shn3RL – cell-based, Renilla luciferase, cherry-picked, counter-screen for Shn3 inhibitor project, dose response (AID 624133); assay type: functional
[14] = loss of viability in HepG2 cells – cell-based, CellTiter-Glo, cherry-picked, cytotoxicity control for Shn3 inhibitor project, dose response (AID 624134); assay type: functional
Cytochrome P450 2C9 = Cytochrome P450 2C9 (Homo sapiens, UniProt P11712)
Cytochrome P450 3A4 = Cytochrome P450 3A4 (Homo sapiens, UniProt P08684);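 further: CYP3A4 tested as one member of a cytochrome P450 panel screen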
Coagulation factor XII = molecular target: T2, Coagulation factor XII (Homo sapiens, UniProt P00748); assay type: functional;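 further: activated factor XIIa alpha cleaving a fluorogenic AMC peptide substrate; inhibitor potency from loss of enzyme activity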
T2 sequence (P00748 whole entry): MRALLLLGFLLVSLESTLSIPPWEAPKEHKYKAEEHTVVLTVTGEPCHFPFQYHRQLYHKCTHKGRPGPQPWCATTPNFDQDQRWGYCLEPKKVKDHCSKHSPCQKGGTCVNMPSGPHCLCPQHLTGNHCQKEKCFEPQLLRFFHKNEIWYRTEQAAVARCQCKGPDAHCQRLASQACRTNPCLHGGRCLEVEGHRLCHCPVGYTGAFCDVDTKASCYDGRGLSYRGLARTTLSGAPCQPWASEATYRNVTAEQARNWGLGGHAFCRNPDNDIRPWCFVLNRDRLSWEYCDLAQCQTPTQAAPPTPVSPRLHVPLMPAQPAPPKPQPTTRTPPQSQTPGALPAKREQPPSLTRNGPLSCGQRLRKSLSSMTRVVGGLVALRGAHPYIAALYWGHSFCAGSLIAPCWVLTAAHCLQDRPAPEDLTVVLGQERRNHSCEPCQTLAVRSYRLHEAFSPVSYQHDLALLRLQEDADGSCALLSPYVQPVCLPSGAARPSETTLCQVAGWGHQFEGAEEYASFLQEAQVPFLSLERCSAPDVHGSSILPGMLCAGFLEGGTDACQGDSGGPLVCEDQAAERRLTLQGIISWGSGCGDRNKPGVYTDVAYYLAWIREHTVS

Cytochrome P450 1A2 = molecular target: T3, Cytochrome P450 1A2 (Homo sapiens, UniProt P05177);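 further: PubChem cytochrome P450 panel assay, CYP1A2 panel member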
T3 sequence (P05177 whole entry): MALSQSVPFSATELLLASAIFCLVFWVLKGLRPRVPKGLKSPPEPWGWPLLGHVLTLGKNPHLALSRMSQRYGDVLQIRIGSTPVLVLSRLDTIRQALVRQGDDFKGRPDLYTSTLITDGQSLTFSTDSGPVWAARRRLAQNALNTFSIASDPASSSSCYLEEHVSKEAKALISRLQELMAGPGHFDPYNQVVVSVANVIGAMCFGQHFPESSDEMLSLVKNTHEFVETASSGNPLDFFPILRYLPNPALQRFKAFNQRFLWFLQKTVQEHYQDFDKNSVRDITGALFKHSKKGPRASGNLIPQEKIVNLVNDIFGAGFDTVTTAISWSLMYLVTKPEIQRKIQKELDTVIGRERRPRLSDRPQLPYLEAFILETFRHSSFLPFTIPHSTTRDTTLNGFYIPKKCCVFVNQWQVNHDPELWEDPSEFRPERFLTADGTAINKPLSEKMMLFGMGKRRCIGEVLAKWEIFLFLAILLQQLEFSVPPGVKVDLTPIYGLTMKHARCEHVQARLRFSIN

[15] = HGIII-sPLA2 enzyme inhibition potency – biochemical, QFRET, IC50, dose response (AID 743457);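 further: green fluorescence rise as the enzyme cleaves BODIPY PC-A2 in liposomes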
[16] = molecular target: T4, Histone-lysine N-methyltransferase NSD2 (Homo sapiens, UniProt O96028); assay type: biochemical
T4 sequence (O96028 whole entry): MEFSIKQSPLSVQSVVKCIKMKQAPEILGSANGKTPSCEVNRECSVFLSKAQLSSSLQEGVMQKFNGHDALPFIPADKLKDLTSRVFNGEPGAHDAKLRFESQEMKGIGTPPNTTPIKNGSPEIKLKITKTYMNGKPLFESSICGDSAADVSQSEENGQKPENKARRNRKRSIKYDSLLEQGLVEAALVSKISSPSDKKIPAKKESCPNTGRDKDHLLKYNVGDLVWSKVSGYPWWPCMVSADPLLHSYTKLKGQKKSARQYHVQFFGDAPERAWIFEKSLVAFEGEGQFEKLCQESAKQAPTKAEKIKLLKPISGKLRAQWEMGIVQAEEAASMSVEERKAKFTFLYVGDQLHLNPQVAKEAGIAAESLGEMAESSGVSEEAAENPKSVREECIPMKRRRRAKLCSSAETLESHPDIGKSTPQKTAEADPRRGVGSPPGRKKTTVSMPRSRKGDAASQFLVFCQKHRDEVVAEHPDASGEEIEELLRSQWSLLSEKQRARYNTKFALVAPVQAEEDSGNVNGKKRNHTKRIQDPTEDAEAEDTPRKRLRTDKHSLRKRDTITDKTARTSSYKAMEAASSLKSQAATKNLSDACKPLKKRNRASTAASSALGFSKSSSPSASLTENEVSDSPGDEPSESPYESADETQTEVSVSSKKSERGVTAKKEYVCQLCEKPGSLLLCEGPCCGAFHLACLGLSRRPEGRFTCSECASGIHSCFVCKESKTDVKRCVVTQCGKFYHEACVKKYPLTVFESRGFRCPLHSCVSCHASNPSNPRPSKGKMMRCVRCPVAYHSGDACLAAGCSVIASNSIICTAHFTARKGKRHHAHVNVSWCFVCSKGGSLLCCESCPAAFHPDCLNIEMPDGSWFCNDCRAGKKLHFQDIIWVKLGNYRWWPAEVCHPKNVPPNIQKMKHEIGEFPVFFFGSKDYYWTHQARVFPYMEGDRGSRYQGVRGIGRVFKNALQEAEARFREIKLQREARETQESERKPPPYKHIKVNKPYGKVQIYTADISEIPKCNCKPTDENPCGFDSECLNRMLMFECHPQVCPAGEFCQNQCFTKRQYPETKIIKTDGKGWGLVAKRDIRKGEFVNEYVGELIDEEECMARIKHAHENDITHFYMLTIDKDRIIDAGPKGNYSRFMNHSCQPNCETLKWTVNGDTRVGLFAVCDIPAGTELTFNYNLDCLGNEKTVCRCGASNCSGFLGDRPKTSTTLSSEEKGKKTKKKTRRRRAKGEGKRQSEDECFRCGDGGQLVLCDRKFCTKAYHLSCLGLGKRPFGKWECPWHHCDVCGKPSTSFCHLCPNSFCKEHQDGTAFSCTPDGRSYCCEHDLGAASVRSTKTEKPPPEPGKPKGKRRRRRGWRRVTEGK

Nonstructural protein 1 = Nonstructural protein 1 (Influenza A virus, UniProt Q194T2); assay type: functional, Influenza A virus (A/California/07/2009(H1N1))
Nonstructural protein 1, sequence (Q194T2 whole entry): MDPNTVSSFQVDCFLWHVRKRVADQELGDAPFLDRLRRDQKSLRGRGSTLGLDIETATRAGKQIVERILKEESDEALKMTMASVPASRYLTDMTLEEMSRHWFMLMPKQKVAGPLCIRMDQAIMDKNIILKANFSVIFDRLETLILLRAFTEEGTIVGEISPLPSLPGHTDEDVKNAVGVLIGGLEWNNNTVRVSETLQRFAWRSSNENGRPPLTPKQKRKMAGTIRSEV

Cytochrome P450 3A4, sequence (P08684 whole entry): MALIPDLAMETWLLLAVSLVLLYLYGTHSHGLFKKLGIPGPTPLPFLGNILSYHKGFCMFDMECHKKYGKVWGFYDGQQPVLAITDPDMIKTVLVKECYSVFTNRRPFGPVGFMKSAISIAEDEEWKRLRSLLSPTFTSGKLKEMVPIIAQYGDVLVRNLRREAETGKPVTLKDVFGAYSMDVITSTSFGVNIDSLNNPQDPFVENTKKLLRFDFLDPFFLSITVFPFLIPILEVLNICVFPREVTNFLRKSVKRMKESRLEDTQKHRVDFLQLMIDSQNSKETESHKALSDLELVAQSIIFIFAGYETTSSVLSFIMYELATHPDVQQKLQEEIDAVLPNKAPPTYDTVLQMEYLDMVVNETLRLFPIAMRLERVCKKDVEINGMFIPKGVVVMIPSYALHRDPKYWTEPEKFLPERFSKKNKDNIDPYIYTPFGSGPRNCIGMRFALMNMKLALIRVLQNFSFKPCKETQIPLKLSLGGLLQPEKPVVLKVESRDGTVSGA
Cytochrome P450 2C9, sequence (P11712 whole entry): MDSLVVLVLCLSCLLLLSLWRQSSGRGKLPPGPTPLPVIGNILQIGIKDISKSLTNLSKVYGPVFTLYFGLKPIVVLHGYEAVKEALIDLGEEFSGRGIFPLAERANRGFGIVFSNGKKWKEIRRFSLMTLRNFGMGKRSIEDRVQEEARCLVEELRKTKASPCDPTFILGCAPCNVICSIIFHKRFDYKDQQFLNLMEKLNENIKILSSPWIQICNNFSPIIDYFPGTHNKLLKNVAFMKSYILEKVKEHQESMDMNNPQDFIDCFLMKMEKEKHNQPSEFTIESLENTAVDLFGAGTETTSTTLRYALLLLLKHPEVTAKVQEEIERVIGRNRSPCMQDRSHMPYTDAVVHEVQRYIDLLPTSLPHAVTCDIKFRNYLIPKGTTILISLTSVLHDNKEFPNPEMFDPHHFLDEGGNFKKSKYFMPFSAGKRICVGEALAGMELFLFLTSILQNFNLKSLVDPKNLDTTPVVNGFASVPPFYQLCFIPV
5-hydroxytryptamine receptor 2A, sequence (P35363 whole entry): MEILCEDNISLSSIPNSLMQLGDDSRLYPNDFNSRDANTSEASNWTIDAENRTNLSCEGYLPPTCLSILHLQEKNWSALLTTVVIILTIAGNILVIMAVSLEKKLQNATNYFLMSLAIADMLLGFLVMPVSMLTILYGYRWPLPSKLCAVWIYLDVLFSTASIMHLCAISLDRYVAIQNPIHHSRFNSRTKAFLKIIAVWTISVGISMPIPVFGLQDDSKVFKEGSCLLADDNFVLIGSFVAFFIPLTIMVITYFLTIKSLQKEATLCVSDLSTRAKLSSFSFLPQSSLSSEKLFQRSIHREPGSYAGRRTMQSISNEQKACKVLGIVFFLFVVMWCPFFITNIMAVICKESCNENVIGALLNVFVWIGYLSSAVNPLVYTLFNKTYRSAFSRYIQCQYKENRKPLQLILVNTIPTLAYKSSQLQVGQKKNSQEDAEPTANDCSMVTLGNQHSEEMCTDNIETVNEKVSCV
Mu-type opioid receptor, sequence (P35372 whole entry): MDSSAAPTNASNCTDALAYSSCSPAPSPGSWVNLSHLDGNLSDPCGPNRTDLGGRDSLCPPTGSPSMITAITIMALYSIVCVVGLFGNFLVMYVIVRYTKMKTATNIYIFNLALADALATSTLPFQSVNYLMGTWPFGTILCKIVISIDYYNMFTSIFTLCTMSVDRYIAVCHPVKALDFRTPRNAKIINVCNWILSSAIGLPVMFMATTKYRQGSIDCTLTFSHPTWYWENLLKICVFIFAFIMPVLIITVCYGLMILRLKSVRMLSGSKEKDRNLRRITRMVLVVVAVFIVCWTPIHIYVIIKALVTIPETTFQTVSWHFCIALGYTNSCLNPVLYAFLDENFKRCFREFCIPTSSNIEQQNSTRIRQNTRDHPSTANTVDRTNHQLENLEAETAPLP
FAD-linked sulfhydryl oxidase ALR, sequence (P55789 whole entry): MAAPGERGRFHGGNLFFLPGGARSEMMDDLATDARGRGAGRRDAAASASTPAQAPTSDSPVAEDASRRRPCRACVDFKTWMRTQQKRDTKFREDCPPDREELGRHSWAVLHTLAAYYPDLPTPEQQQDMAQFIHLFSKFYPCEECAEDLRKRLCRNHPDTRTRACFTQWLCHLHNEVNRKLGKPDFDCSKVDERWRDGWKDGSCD

## C=CCN1CCc2c(cc(O)c(O)c2Cl)C(c2ccccc2)C1 (stereo not given)
Mu-type opioid receptor
  EC50: 92.4 µM (inactive)
[1]
  AC50: 4.74 µM (active)
[2]
  EC50: 0.203 µM (active)

## Cc1cc2c(cc1C)CSC(c1c(O)ccc3ccccc13)SC2
Streptococcus
  EC50: 5.67 µM (active)
Streptokinase A
  EC50: 3.41 µM (active)
[3]
  AC50: 2.24 µM (active)
[4]
  CC50: 23 µM (active)
[5]
  EC50: 1.98 µM (active)
[6]
  AC50: 4.26 µM (active)

## Oc1nc2ccccc2n1C1CCN(C(CCc2ccccc2)c2nnnn2C2CCCC2)CC1 (stereo not given)
[7]
  AC50: 22.4 µM (active)
[8]
  AC50: 13.3 µM (active)
[9]
  AC50: 20.3 µM (active)
[10]
  AC50: 18.4 µM (active)
[11]
  AC50: 14.1 µM (active)

## O=C(OCCC12CC3CC(CC(C3)C1)C2)c1ccc(NCc2cc(O)ccc2O)cc1
[12]
  AC50: 1.82 µM (active)
[13]
  AC50: 5.97 µM (active)
[14]
  AC50: 21.7 µM (active)

## Cc1cc(C(=O)Nc2ccc(N3CCOCC3)cc2)c2ccccc2n1
Cytochrome P450 2C9
  AC50: inconclusive
Cytochrome P450 3A4
  AC50: 15.8 µM (inconclusive)
Coagulation factor XII
  IC50: > 50 µM (inactive)

## O=C(NCc1ccccc1)c1ccc(Cl)cc1[N+](=O)[O-]
Cytochrome P450 1A2
  AC50: 20 µM (inconclusive)
Cytochrome P450 2C9
  AC50: inconclusive
Cytochrome P450 3A4
  AC50: 22.4 µM (inconclusive)

## CCCCN=C(S)NNC(=O)c1ccc(Br)o1
[15]
  IC50: > 122 µM (inactive)

## CN(C1=C(N2CCOCC2)C(=O)c2ccccc2C1=O)c1ccccc1
[15]
  IC50: > 122 µM (inactive)
[16]
  AC50: 4.86 µM (active)
Nonstructural protein 1
  IC50: 11.9 µM (active)

## CCOC(=O)N1CCN(C(=O)c2ccc3c(c2)N(Cc2ccc(C)cc2)CCS3)CC1
[12]
  AC50: 6 µM (active)
[13]
  AC50: 2.31 µM (active)
[14]
  AC50: > 70 µM (inactive)
